Reference: paper PMC8899577, “Targeting the anti-apoptotic Bcl-2 family proteins: machine learning virtual screening and biological evaluation of new small molecules” (Theranostics, 2022)
pIC50: −log10 of the molar value.

Key:
Type in all cases: cell-based, Human
[1] = system: HL60 cells; test: Flow cytometry subG1 peak (PI staining), HL60; conditions: 20 µM for 24 h
Description: Flow cytometric analysis (BD Accuri™ C6, BD Biosciences) was performed to evaluate cell cycle distribution by propidium iodide (PI) staining, and cell viability by using the PI dye exclusion assay as previously reported.
Figure 5 Analysis of apoptosis induction by IS20 and IS21 in leukemia, melanoma and NSCLC cells. […] (A-F) Reported images are representative of two independent experiments with similar results. HSP72/73 or α-Tubulin are shown as loading and transferring control. (G) Flow cytometric quantification of cells in the subG1 peak of cell cycle distribution by propidium iodide staining in HL60 cell line treated with IS20 or IS21 (20 μM for 24 h) and in M14, H1299 and MDA-MB-231 cell lines treated with IS20 or IS21 (20 μM for 72 h). Data are reported as mean ± SD of three independent experiments. p-values were calculated between control (Ctrl) and treated cells, * p < 0.05. (H) Flow cytometric quantification of cells in the subG1 peak by propidium iodide staining in M14 and H1299 cell lines treated with IS20 or IS21 (20 μM, 72 h) in presence or absence of the pan caspase inhibitor z-VAD (50 μM). p-values were calculated between treated control (Ctrl) cells, # p < 0.01, ## p < 0.001 or between cells treated with IS20 or IS21 alone or in combination with z-VAD, * p < 0.05, ** p < 0.005. (G-H) Data are reported as mean of two (H) or three (G) experiments ± SD.

[2] = system: M14 cells; test: Tumor sphere formation assay, M14; conditions: 20 µM for 72 h, respect to controls
Description: For tumor sphere assay, cells were recovered after treatment, counted and seeded in 24-well ultralow attachment surface plates at a density of 5 × 10^2 cells/well and cultured as previously described. After 10 days, spheres were photographed and counted. The percentage of spheres normalized to the number of seeded cells was calculated.
(§1) Figure 4 Analysis of the effect of IS20 and IS21 on cell viability, clonogenic ability and tumor sphere formation in cancer cells. (A) Analysis of cell viability by MTT assay in M14, H1299, HCT116 and MDA-MB-231 cell lines treated with IS20 or IS21 (20 μM for 72 h). The results are reported as “viability of treated cells/viability of control cells (Ctrl)” × 100. (B) Representative images and quantification of clonogenic ability evaluated in M14 and H1299 cells treated with IS20 or IS21 (20 μM for 72 h). Results are reported as percentage of clonogenicity of treated versus control cells. (C) Quantification of tumor sphere formation of M14 and H1299 cells treated with IS20 or IS21 (20 μM for 72 h). Results are reported as percentage of tumor sphere formation of treated versus control. (A-C) Data are reported as mean ± SD of three independent experiments. p-values were calculated between control (Ctrl) and treated cells, ** p < 0.001 and *** p < 0.0001.

[3] = system: M14 melanoma cells; test: Cell viability by MTT, M14; conditions: for cell viability M14: 20 µM for 72 h, vs control; for pIC50: Homo sapiens, M14, 72 h, MTT
Description: (§2) The effect of compounds on cell viability was performed by measuring 3-[4,5-dimethylthiazol-2-yl]-2,5-diphenyltetrazolium bromide inner salt (MTT, Sigma-Aldrich) dye absorbance (solid tumor cells) or by quantization of ATP present in metabolically active cells using CellTiter-Glo® Luminescent (Promega, Fitchburg, Wisconsin, USA) (hematologic cells) following manifacturer's protocol. To evaluate the cell colony-forming ability, cell suspension from different samples was seeded into 60-mm Petri dishes. After 10 days, colonies were stained with 2% methylene blue in 95% ethanol and counted (1 colony > 50 cells). The surviving fractions were calculated as the ratio of absolute survival of the treated sample/survival of DMSO-treated control sample.
Figure 1 Cytotoxic screening of putative inhibitors of Bcl-2 anti-apoptotic proteins. (A) Flow cytometric quantification of propidium iodide exclusion assay in HL60 cells treated with the 49 putative Bcl-2 family inhibitors (50 μM, 72 h). (B) Analysis of cell viability by CellTiterGlo assay in HL60 cells treated for 24 h with concentrations ranging from 5 to 50 μM of the indicated compounds. (C-D) Analysis of cell viability by MTT assay in (C) M14 and (D) Sbcl2 melanoma cell lines treated for 72 h with concentrations ranging from 5 to 50 μM of the indicated compounds. (A-D) The results are reported as “viability of treated cells/viability of control cells (Ctrl)” × 100. Data are reported as mean of two (HL60) or three (M14 and Sbcl2) experiments ± SEM.
as §1

[4] = system: H1299 NSCLC cells; test: Cell viability by MTT, H1299; conditions: 20 µM for 72 h, vs control
Description: as §2
Figure 4 Analysis of the effect of IS20 and IS21 on cell viability, clonogenic ability and tumor sphere formation in cancer cells. […] (B) Representative images and quantification of clonogenic ability evaluated in M14 and H1299 cells treated with IS20 or IS21 (20 μM for 72 h). […] (C) Quantification of tumor sphere formation of M14 and H1299 cells treated with IS20 or IS21 (20 μM for 72 h). […] (A-C) Data are reported as mean ± SD of three independent experiments. p-values were calculated between control (Ctrl) and treated cells, ** p < 0.001 and *** p < 0.0001.

[5] = system: M14 cells; test: Western blot of LC3B-I/LC3B-II (autophagy), M14; conditions: 72 h
Description: Western blot analyses of total protein extracts were performed as previously described. Immunodetection was performed using antibodies directed to poly (ADP-ribose) polymerase (PARP; BD Biosciences San Diego, CA, USA), LC3B (Cell Signaling Technology, Danvers, MA), HSP72/73 (Calbiochem, EMD Biosciences, La Jolla, CA), Bcl-2 (SC-509, Santa Cruz Biotechnology Inc, Dallas, TX, USA), Bcl-xL (SC-271121, Santa Cruz Biotechnology Inc), Mcl-1 (SC-12756, Santa Cruz Biotechnology Inc) α-tubulin (Santa Cruz Biotechnology Inc) actin (Sigma-Aldrich, St. Louis, Missouri, USA). Anti-rabbit or anti-mouse immunoglobulin G-horseradish peroxidase-conjugated antibodies (Amersham Biosciences, Freiburg, Germany) were used as secondary antibody. Images were acquired by Image Lab Software (Bio-Rad, Hercules, CA, USA), using a ChemiDoc System instrument (Bio-Rad). The densitometric evaluation was performed using Image J software and normalized with relative controls.
Figure 6 Analysis of autophagosome accumulation in M14 and H1299 cells after treatment with IS20 or IS21. Western blot analysis of LC3B-I and LC3B-II protein levels in (A) M14, and (B) H1299 cell lines untreated (Ctrl) or treated with IS20 or IS21 for 72 h at the indicated concentrations. (C) Western blot analysis of LC3B-I and LC3B-II levels in HL60 and U937 cell lines untreated (Ctrl) or treated with IS20 or IS21 (20 μM for 24 h). (A-C) Reported images are representative of two independent experiments with similar results. HSP72/73, Actin or α-Tubulin are shown as loading and transferring control. […] Ratio of LC3B-II on LC3B-I levels, after normalization on HSP72/73, Actin or α-Tubulin, is quantified by densitometric analysis. (D) (Upper panels) Representative images and (lower panels) relative quantification of fluorescence microscopic analysis of LC3B puncta positive cells in M14 EGFP-LC3B and H1299 EGFP-LC3B transfected cells, treated with IS20 or IS21 (20 µM for 72h). […] Cells with more than 10 puncta were considered autophagy-positive. p-values were calculated between untreated (Ctrl) and treated cells, * p < 0.05.

Compound | subG1 peak of cell cycle distribution, HL60 [1] | decrease of sphere formation capacity, M14 [2] | cell viability M14 [3] | pIC50 [3] | cell viability H1299 [4] | ratio of LC3B-II on LC3B-I / LC3B-II protein level, M14 [5]
CCCCOc1ccc(C2/C(=C(\O)c3ccc4c(c3)CC(C)O4)C(=O)C(=O)N2c2nnc(SCc3ccc(Cl)cc3)s2)cc1OCC (stereo not drawn) [IS20] | presence of subG1 peak | about 60% | significant inhibition | 4.70 | significant inhibition | higher level
CCCCCOc1ccc(C2/C(=C(\O)c3ccc4c(c3)CC(C)O4)C(=O)C(=O)N2c2nnc(SCc3ccc(Cl)cc3)s2)cc1OCC (stereo not drawn) [IS21] | presence of subG1 peak | about 60% | significant inhibition | 4.78 | significant inhibition | higher level
